Reference: patent US20030162972A1, “Pyridyl alkane acid amides as cytostatics and immunosupressives” (Klinge Pharma GmbH, priority 1996, published 2003)

Tests used:
HepG2 cells = test: Growth inhibition of HepG2 cells, six days of substance incubation, sulforhodamin-B protein determination; type: cell-based; conditions: Homo sapiens, 144 h
Experimental: (§1) HepG2 cells plated at a density of 20,000 cells/ml in 12-well plastic dishes. Cultivation occured in Richters IMEM-ZO nutrient medium with 5% fetal calf serum (FCS) in a tissue culture incubator with a gas mixture of 5% CO2 and 95% air at a temperature of 37° C. One day after planting, the culture medium was aspirated from the cells and replaced by fresh medium which contained the respective concentrations of the test substances. For the individual concentrations and the controls without test substances, three-fold batches were done for each. Three days after the beginning of treatment, the medium was again renewed with the test compounds. After six days of substance incubation, the test was ended and the protein amount in the individual wells was determined with the sulforhodamin-B-method (according to P. Skehan et al: New Colorimetric Cytotoxicity Assay for Anticancer-Drug Screening. J. Natl. Cancer Inst. 82:1107-1112, 1990). The IC50-values (defined as that concentration in which the cell growth was inhibited by 50%) was taken from the dose-response curves and given as a comparative measurement for the activity of the test compounds.

[1] = system: freshly isolated lymphocytes; test: Immunosuppressing activity: vitality of freshly isolated spleen lymphocytes after 2 days, flow-through cytometry (propidium iodide / 3,3'-dihexyloxacarbocyanin iodide); type: cell-based; conditions: Lymphocyte, 48 h; Swiss mouse spleen lymphocytes, vital cells after 2 days, flow-through cytometer
Excerpt: Many anti-tumor agents have not only a cytotoxic effect on tumor cells, but also on the blood cell system. This leads to a weakening of the immune defence, which can, in turn, be specifically employed to suppress the rejection reaction after an organ transplantation for example. Therefore, a use of the main compounds, optionally in combination with other compounds effective for these indications is suitable in diseases such as psoriasis or autoimmune diseases. In order to test the possibility for a therapeutic use in illnesses of this type, the substance activity was tested on freshly isolated lymphocytes as follows: […]
The cells were plated at a density of ca. 500,000 cells/well/ml in a 12-well plate, 1 ml doubly concentrated test substance solution was pipetted per well and this was subsequently incubated in a tissue culture incubator at 37° C. and 5% CO2. […] Subsequently, 10,000 cells per each sample were measured on a flow-through cytometer and the percentage amount of vital cells in the population was determined. By means of the dose-response curves, IC50-values were calculated which were also employed in the following Tables for the characterization of the individual substances: […]

[2] = system: various human tumor cells; test: In vitro activity of compound Nr. 54 on various human tumor cells; type: cell-based
Experimental: as §1
The compounds of formula (I) and their salts permit a therapeutic use in malignant illnesses of humans and animals through their excellent inhibition of the growth of tumor cells. The anti-neoplastic activity of the described substances can be used for prophylactic, adjunct, palliative, and curative treatment of solid tumors, leukemic illnesses and lymphomas as well as for decreasing or preventing metastasis formation in humans and animals. The therapeutic use is possible in the following illnesses for example: gynecological tumors, such as of the uterus or the vagina, ovarian carcinomas, testicle tumors, prostate carcinomas, skin cancer, kidney cancer, bladder tumors, esophagus carcinomas, stomach cancer, rectal carcinomas, pancreas carcinomas, thyroid cancer, adrenal tumors, leukemia and lymphomas, such as Hodgkin's disease, tumor illnesses of the CNS, soft-tissue sarcomas, bone sarcomas, benign and malignant mesotheliomas, but especially intestine cancer, liver cancer, breast cancer, bronchial and lung carcinomas, melanomas, acute and chronic leukemias. Thereby, benign papillomatosis tumors are also considered for therapy. The broad activity of the new compounds was tested in vitro on various human tumor cells Thereby, the following IC50 values were obtained for compound Nr.

Structure (SMILES)	melting point	IC50 (HepG2 cells)	further results
O=C(CCc1cccnc1)NCCCCNC(=O)C1CCCN(C(c2ccccc2)c2ccccc2)C1 (stereo not drawn) [Substance 106, N-[4-(1-diphenylmethyl-piperidin-3-yl-carbonylamino)-butyl]-3-(pyridin-3-yl)-propionamide]	159 to 161 °C		
CCN(CCCCC1CCN(C(c2ccccc2)c2ccccc2)CC1)C(=O)CCc1cccnc1 [Substance 68, N-[4-(1-diphenylmethyl-piperidin-4-yl)-butyl]-N-ethyl-3-(pyridin-3-yl)-propionamide]	72 to 74 °C		
O=C(COc1cccnc1)NCCCCC1CCN(C(c2ccccc2)c2ccccc2)CC1 [Substance 84, N-[4-(1-diphenylmethyl-piperidin-4-yl)-butyl]-2-(pyridin-3-yloxy)-acetamide]	103 to 105 °C	80 nM	

Continued, in another order:

melting point	IC50 (HepG2 cells)	Structure (SMILES)	further results
72 to 74 °C		O=C(CCc1cccnc1)NCCCCC1CCN(C(=O)c2ccccc2)CC1 [Substance 162, N-[4-(1-benzoylpiperidin-4-yl)-butyl]-3-(pyridin-3-yl)-propionamide]	
112 to 114 °C	30 nM	O=C(CCc1cccnc1)NCCCCCC1CCN(C(c2ccccc2)c2ccccc2)CC1 [Substance 101, N-[5-(1-diphenylmethyl-piperidin-4-yl)-pentyl]-3-(pyridin-3-yl)-propionamide]	
	20 nM	O=C(CCc1cccnc1)NCCCCC1CCN(C(c2ccccc2)c2ccccc2)CC1 [Substance 54, N-[4-(1-diphenylmethyl-piperidin-4-yl)-butyl]-3-(pyridin-3-yl)-propionamide]	IC50 [1]: 3 nM; IC50 ([2]; MCF7, cell line MCF-7, ER-positive mammacarcinoma): 80 nM; IC50 ([2]; cell line HT-29, colon carcenoma): 80 nM; IC50 ([2]; cell line HepG2, hepatocellular carcinoma): 20 nM; IC50 ([2]; cell line Namalwa, Burkitt's lymphoma): 50 nM; IC50 ([2]; cell line Saos-2, osteosarcoma): 20 nM; IC50 ([2]; cell line THP-1, monocytic leukemia): 30 nM
